# Results: US4353923A, “Pharmaceutical composition containing a benzofurancarboxamide derivative as the active ingredient” (Kyowa Hakko Kogyo Co., Ltd., priority 1980, dated 1982)
# Assays:
# male dd mice [1] = experiment: Analgesic activity: acetic acid writhing; format: in vivo; settings: Mus musculus, po, 1 h, acetic acid i.p. after 60 min, read-out: Inhibition ratio (writhes, vs control); for inhibition in vivo at 50 mg/kg: 50 mg/kg p.o.; for inhibition in vivo at 150 mg/kg: 150 mg/kg p.o.
# Description: In this experiment, 10 male dd mice weighing 20±1 g were used as one group for examination of analgesic activity. Sixty minutes after oral administration of each drug to each animal, 0.2 ml of a 0.7% acetic acid solution was intraperitoneally administered to the animal. Starting 10 minutes after the administration of acetic acid, the number of writhes occurred in 10 minutes was counted. Average number of writhes and inhibition ratio in comparison with control group were calculated.
# male Wistar rats = experiment: Anti-inflammatory activity: carrageenin edema method; format: in vivo; settings: Rattus norvegicus, po, 3 hours after carrageenin, read-out: Inhibition ratio (paw swelling, vs control); for inhibition in vivo at 150 mg/kg: 150 mg/kg p.o.
# Description: In this experiment, 5 male Wistar rats weighing 140±10 g were used as one group. Sixty minutes after oral administration of each drug to each animal, 0.1 ml of a 1% carrageenin solution as a phlogistic agent was injected into the plantar surface of the right hind paw of the animal to induce inflammation. The volume of the paw was measured before and 3 hours after the injection of the phlogistic agent. Swelling ratio and inhibition ratio in comparison with control group were calculated.
# male dd mice [2] = experiment: Anticonvulsant activity: maximal electroshock convulsion test; format: in vivo; settings: Mus musculus, po, 1 h, 60 min after administration, read-out: Maximal electroshock convulsion test, inhibition ratio; for responders at 25 mg/kg: 25 mg/kg p.o.; for responders at 50 mg/kg: 50 mg/kg p.o.; for responders at 75 mg/kg: 75 mg/kg p.o.; for responders at 100 mg/kg: 100 mg/kg p.o.
# Text: Anticonvulsant activity was examined according to maximal electroshock convulsion test.
# In this experiment, 10 male dd mice weighing 23±1 g were used as one group. Each drug was orally administered to the animals. Sixty minutes after the administration, an electric current (2000 V, 50 mA) was applied to both eyes of the mouse for 0.2 second. Drug activity was judged according to whether tonic extensor seizures were observed or not.
# male dd mice [3] = experiment: Muscle relaxant activity: rotating rod test; format: in vivo; settings: 5 mice per group
# Description: (§1) In this example, 5 male dd mice weighing 20±1 g were used as one group. Prior to the experiments, mice were placed on the rod having a diameter of 3 cm and rotating at 5 r.p.m. in the reverse direction of the rotation. […] The drugs were orally administered and the muscle relaxant activity with the passage of time was examined by the following tests.
# Rotating rod test: The same mouse was placed on the rotating rod to observe whether it falls or not within 2 minutes.
# (§2) In each test, the drug was considered to have a muscle relaxant activity when the mouse fell.
# male dd mice [4] = experiment: Muscle relaxant activity: slant test; format: in vivo; settings: 5 mice per group
# Description: as §1
# Slant test: Each mouse was placed on a wire net inclined at an angle of 45° to observe whether it falls or not.
# as §2
# male dd mice [5] = experiment: Muscle relaxant activity: traction test; format: in vivo; settings: 5 mice per group
# Text: as §1
# Traction test: Forefeet of the same mouse were placed on a wire to observe whether it falls or not.
# as §2
# in vivo = settings: mouse, po, mice, deaths counted for 7 days
# Description: In this example, 3-7 male dd mice weighing 20±1 g were used as one group. Each drug was suspended in a 0.3% CMC solution and orally administered. After the administration, number of dead animals was counted for 7 days to determine LD50 value. As the reference drugs, mepirizole and benzydamine hydrochloride were dissolved in water and orally administered. The drugs and the reference drugs were also administered in the same manner as above in Examples 2-5.
structure (smiles),measurement,setting,value
"Cc1c(C(=O)N(C)C)oc2cc(Cl)ccc12 [Compound (B), 6-Chloro-N,N,3-trimethyl-benzo[b]furan-2-carboxamide]",inhibition in vivo at 50 mg/kg,male dd mice [1],34.9%
same,inhibition in vivo at 150 mg/kg,male dd mice [1],95.4%
same,inhibition in vivo at 150 mg/kg,male Wistar rats,39.8%
same,responders at 25 mg/kg,male dd mice [2],0%
same,responders at 50 mg/kg,male dd mice [2],40%
same,responders at 75 mg/kg,male dd mice [2],60%
same,"Number of dropped mice, rotating rod test","male dd mice [3]; 75 mg/kg p.o., 1 hr",5 mice
same,"Number of dropped mice, rotating rod test","male dd mice [3]; 75 mg/kg p.o., 2 hr",4 mice
same,"Number of dropped mice, rotating rod test","male dd mice [3]; 75 mg/kg p.o., 3 hr",4 mice
same,"Number of dropped mice, rotating rod test","male dd mice [3]; 150 mg/kg p.o., 1 hr",5 mice
same,"Number of dropped mice, rotating rod test","male dd mice [3]; 150 mg/kg p.o., 2 hr",5 mice
same,"Number of dropped mice, rotating rod test","male dd mice [3]; 150 mg/kg p.o., 3 hr",5 mice
same,"Number of dropped mice, slant test","male dd mice [4]; 300 mg/kg p.o., 1 hr",5 mice
same,"Number of dropped mice, slant test","male dd mice [4]; 300 mg/kg p.o., 2 hr",5 mice
same,"Number of dropped mice, slant test","male dd mice [4]; 300 mg/kg p.o., 3 hr",5 mice
same,"Number of dropped mice, traction test","male dd mice [5]; 75 mg/kg p.o., 1 hr",3 mice
same,"Number of dropped mice, traction test","male dd mice [5]; 75 mg/kg p.o., 2 hr",4 mice
same,"Number of dropped mice, traction test","male dd mice [5]; 75 mg/kg p.o., 3 hr",2 mice
same,"Number of dropped mice, traction test","male dd mice [5]; 150 mg/kg p.o., 1 hr",5 mice
same,"Number of dropped mice, traction test","male dd mice [5]; 150 mg/kg p.o., 2 hr",5 mice
same,"Number of dropped mice, traction test","male dd mice [5]; 150 mg/kg p.o., 3 hr",5 mice
same,LD50 at 168 h,in vivo,500 to 1000 mg/kg
"Cc1c(C(=O)N(C)C)oc2c(Cl)cccc12 [Compound (C), 7-chloro-N,N,3-trimethylbenzo[b]furan-2-carboxamide]",inhibition in vivo at 50 mg/kg,male dd mice [1],85.3%
same,inhibition in vivo at 150 mg/kg,male dd mice [1],100%
same,inhibition in vivo at 150 mg/kg,male Wistar rats,35.1%
same,inhibition in vivo at 300 mg/kg,male Wistar rats; 300 mg/kg p.o.,57.8%
same,responders at 25 mg/kg,male dd mice [2],40%
same,responders at 50 mg/kg,male dd mice [2],66.7%
same,responders at 75 mg/kg,male dd mice [2],80%
same,responders at 100 mg/kg,male dd mice [2],100%
same,"Number of dropped mice, rotating rod test","male dd mice [3]; 25 mg/kg p.o., 1 hr",3 mice
same,"Number of dropped mice, rotating rod test","male dd mice [3]; 25 mg/kg p.o., 2 hr",1 mice
same,"Number of dropped mice, rotating rod test","male dd mice [3]; 25 mg/kg p.o., 3 hr",0 mice
same,"Number of dropped mice, rotating rod test","male dd mice [3]; 50 mg/kg p.o., 1 hr",5 mice
same,"Number of dropped mice, rotating rod test","male dd mice [3]; 50 mg/kg p.o., 2 hr",5 mice
same,"Number of dropped mice, rotating rod test","male dd mice [3]; 50 mg/kg p.o., 3 hr",2 mice
same,"Number of dropped mice, rotating rod test","male dd mice [3]; 100 mg/kg p.o., 1 hr",5 mice
same,"Number of dropped mice, rotating rod test","male dd mice [3]; 100 mg/kg p.o., 2 hr",5 mice
same,"Number of dropped mice, rotating rod test","male dd mice [3]; 100 mg/kg p.o., 3 hr",5 mice
same,"Number of dropped mice, slant test","male dd mice [4]; 50 mg/kg p.o., 1 hr",5 mice
same,"Number of dropped mice, slant test","male dd mice [4]; 50 mg/kg p.o., 2 hr",4 mice
same,"Number of dropped mice, slant test","male dd mice [4]; 50 mg/kg p.o., 3 hr",1 mice
same,"Number of dropped mice, slant test","male dd mice [4]; 100 mg/kg p.o., 1 hr",5 mice
same,"Number of dropped mice, slant test","male dd mice [4]; 100 mg/kg p.o., 2 hr",5 mice
same,"Number of dropped mice, slant test","male dd mice [4]; 100 mg/kg p.o., 3 hr",5 mice
same,"Number of dropped mice, traction test","male dd mice [5]; 25 mg/kg p.o., 1 hr",0 mice
same,"Number of dropped mice, traction test","male dd mice [5]; 25 mg/kg p.o., 2 hr",0 mice
same,"Number of dropped mice, traction test","male dd mice [5]; 25 mg/kg p.o., 3 hr",0 mice
same,"Number of dropped mice, traction test","male dd mice [5]; 50 mg/kg p.o., 1 hr",5 mice
same,"Number of dropped mice, traction test","male dd mice [5]; 50 mg/kg p.o., 2 hr",4 mice
same,"Number of dropped mice, traction test","male dd mice [5]; 50 mg/kg p.o., 3 hr",1 mice
same,"Number of dropped mice, traction test","male dd mice [5]; 100 mg/kg p.o., 1 hr",5 mice
same,"Number of dropped mice, traction test","male dd mice [5]; 100 mg/kg p.o., 2 hr",5 mice
same,"Number of dropped mice, traction test","male dd mice [5]; 100 mg/kg p.o., 3 hr",5 mice
same,LD50 at 168 h,in vivo,> 1000 mg/kg
"Cc1c(C(=O)N(C)C)oc2ccc(F)cc12 [Compound (D), 5-Fluoro-N,N,3-trimethyl-benzo[b]furan-2-carboxamide]",inhibition in vivo at 50 mg/kg,male dd mice [1],44.2%
same,inhibition in vivo at 150 mg/kg,male dd mice [1],95.4%
same,inhibition in vivo at 150 mg/kg,male Wistar rats,34%
same,responders at 50 mg/kg,male dd mice [2],10%
same,responders at 75 mg/kg,male dd mice [2],40%
same,responders at 100 mg/kg,male dd mice [2],90%
same,"Number of dropped mice, rotating rod test","male dd mice [3]; 50 mg/kg p.o., 1 hr",0 mice
same,"Number of dropped mice, rotating rod test","male dd mice [3]; 50 mg/kg p.o., 2 hr",0 mice
same,"Number of dropped mice, rotating rod test","male dd mice [3]; 50 mg/kg p.o., 3 hr",0 mice
same,"Number of dropped mice, rotating rod test","male dd mice [3]; 75 mg/kg p.o., 1 hr",3 mice
same,"Number of dropped mice, rotating rod test","male dd mice [3]; 75 mg/kg p.o., 2 hr",1 mice
same,"Number of dropped mice, rotating rod test","male dd mice [3]; 75 mg/kg p.o., 3 hr",0 mice
same,"Number of dropped mice, rotating rod test","male dd mice [3]; 100 mg/kg p.o., 1 hr",5 mice
same,"Number of dropped mice, rotating rod test","male dd mice [3]; 100 mg/kg p.o., 2 hr",3 mice
same,"Number of dropped mice, rotating rod test","male dd mice [3]; 100 mg/kg p.o., 3 hr",1 mice
same,"Number of dropped mice, rotating rod test","male dd mice [3]; 150 mg/kg p.o., 1 hr",5 mice
same,"Number of dropped mice, rotating rod test","male dd mice [3]; 150 mg/kg p.o., 2 hr",5 mice
same,"Number of dropped mice, rotating rod test","male dd mice [3]; 150 mg/kg p.o., 3 hr",3 mice
same,"Number of dropped mice, slant test","male dd mice [4]; 150 mg/kg p.o., 1 hr",4 mice
same,"Number of dropped mice, slant test","male dd mice [4]; 150 mg/kg p.o., 2 hr",4 mice
same,"Number of dropped mice, slant test","male dd mice [4]; 150 mg/kg p.o., 3 hr",1 mice
same,"Number of dropped mice, traction test","male dd mice [5]; 50 mg/kg p.o., 1 hr",0 mice
same,"Number of dropped mice, traction test","male dd mice [5]; 50 mg/kg p.o., 2 hr",0 mice
same,"Number of dropped mice, traction test","male dd mice [5]; 50 mg/kg p.o., 3 hr",0 mice
same,"Number of dropped mice, traction test","male dd mice [5]; 75 mg/kg p.o., 1 hr",2 mice
same,"Number of dropped mice, traction test","male dd mice [5]; 75 mg/kg p.o., 2 hr",1 mice
same,"Number of dropped mice, traction test","male dd mice [5]; 75 mg/kg p.o., 3 hr",0 mice
same,"Number of dropped mice, traction test","male dd mice [5]; 100 mg/kg p.o., 1 hr",2 mice
same,"Number of dropped mice, traction test","male dd mice [5]; 100 mg/kg p.o., 2 hr",1 mice
same,"Number of dropped mice, traction test","male dd mice [5]; 100 mg/kg p.o., 3 hr",0 mice
same,"Number of dropped mice, traction test","male dd mice [5]; 150 mg/kg p.o., 1 hr",4 mice
same,"Number of dropped mice, traction test","male dd mice [5]; 150 mg/kg p.o., 2 hr",3 mice
same,"Number of dropped mice, traction test","male dd mice [5]; 150 mg/kg p.o., 3 hr",2 mice
same,LD50 at 168 h,in vivo,700 to 1000 mg/kg
